Experimental data: paper PMC11134387, “Cancer-Stem-Cell Phenotype-Guided Discovery of a Microbiota-Inspired Synthetic Compound Targeting NPM1 for Leukemia” (JACS Au, 2024)

Assays:
MOLM13 (NPM1 WT) = test: Cell viability dose-response in AML cell line (NPM1 WT); assay type: cell-based; conditions: Homo sapiens, MOLM-13; MOLM13, 48 h
Text: One of the most paradigmatic diseases with critical involvement of CSCs is AML. Among the AML stem cell population, CD34+/CD38- are the only ones capable of inducing leukemia in vivo.[27] […] We focused on proteins that disappeared completely after treatment with the compound and whose concentration could be quantified in untreated samples. According to this profile, 340 proteins, including targets related with stemness and cancer, were identified (see Supplementary Excel file). Among them, nucleophosmin 1 (NPM1) especially attracted our attention, as it is one of the most common mutated proteins in AML.[28] To support that the inhibitory capacity of UCM-13369 observed in CSC cells (see Table S1) is mediated by NPM1, the compound was tested on OCI-AML3 and MOLM13 cell lines, as in vitro AML models bearing mutant (NPM1 C+) and wild-type (WT) protein, respectively.
(§1) The test compound was diluted in PBS.

[1] = Plasma protein binding, equilibrium dialysis (RED); assay type: in vitro ADME; conditions: pH 7.4, mouse serum, read-out: Plasma protein binding, bound fraction (converted)
Experimental: (§2) Based on the encouraging results obtained in ex vivo models of AML, we further assessed the therapeutic potential of the new NPM1 inhibitor in vivo. Prior to the evaluation of the compound in an animal model of AML, in vivo pharmacokinetic studies were addressed. Following a single intraperitoneal administration of UCM-13369 at a dose of 25 mg/kg, levels of 200–600 μg/L were detected in mouse peripheral blood up to 6 h (Figure 6A). Plasma protein binding of the compound in mouse serum was measured using an equilibrium dialysis assay, indicating a bound fraction of 83 ± 1%. Next, the efficacy of the compound was evaluated in immunodeficient mice after injection of OCI-AML3-ffLuc-GFP cells as an AML animal model. […]
coupled to a liquid nanochromatography Easy nLC 1200 System (Thermo Scientific).
Once digested, mutant NPM1 C+ C-end sample w as injected into a EASY-Spray™ C18 column, and digestion peptides were separated by using a lineal phase gradi ent (A: 0.1% formic acid in water; B: 20% acetonitrile, 0.1% formic acid in water) for 120 min. Spectra were acquired in DDA m ode, analyzing the 10 higher intensity parent ions in each cycl e.
Proteome Discoverer (Thermo Scientific) was used to align the spectra with the C-end […]
Random exclusion of AIRs was set to 2%. […] Clusters were classifi ed according to H ADDOCK score and stru ctures w er e analyzed with UCSF ChimeraX).10 […]

[2] = In vivo pharmacokinetic study; design: species or system mouse; conditions: single intraperitoneal administration, 25 mg/kg, up to 6 h
Experimental: Based on the encouraging results obtained in ex vivo models of AML, we further assessed the therapeutic potential of the new NPM1 inhibitor in vivo. Prior to the evaluation of the compound in an animal model of AML, in vivo pharmacokinetic studies were addressed. Following a single intraperitoneal administration of UCM-13369 at a dose of 25 mg/kg, levels of 200–600 μg/L were detected in mouse peripheral blood up to 6 h (Figure 6A). Plasma protein binding of the compound in mouse serum was measured using an equilibrium dialysis assay, indicating a bound fraction of 83 ± 1%. Next, the efficacy of the compound was evaluated in immunodeficient mice after injection of OCI-AML3-ffLuc-GFP cells as an AML animal model.
For the pharmacokinetic study of UCM-13369, after injecting 25 mg/kg dose of the compound, samples of blood were withdrawn at different times (30, 60, 120, 240, 360 min), and the presence of tested compound was analyzed by HPLC-MS. The area of the molecular peak allowed us to calculate the concentration of the compound present in mice serum at each time.

[3] = Viability of non-tumor fibroblast cell line; assay type: cell-based; conditions: human, IMR90 non-tumor fibroblasts; @5 µM
Experimental: as §1
(§3) Viability (%) tum orsphere form ation (%)

IMR90 fibroblasts = test: Viability of non-tumor fibroblast cell line; assay type: cell-based; conditions: IMR90 fibroblasts, 5 μM
Experimental: as §1, §3

[4] = Caspase-3 pathology analysis of treated mice; assay type: in vivo
Experimental: as §2
(D) IHC analysis of a poptotic cells in a representative kidney
sample from OC I-AML 3 xenograft mice treat ed with DMSO (vehicle, top) vs . UCM-
13369 treated mice (50 mg/kg, bottom) mice: H&E ( left) and cleav ed caspase- 3 (right).
Scale bar: 100 μm. (E ) Dose-response curve of UCM-13369 in human renal proximal

COc1ccc(C2Cc3[nH]c4ccccc4c3C(CCNCC3CC3)C2N)cc1 (stereo not shown) [4b, 4-{2-[(Cyclopropylmethyl)amino]ethyl}-2-(4-methoxyphenyl)-2,3,4,9-tetrahydro-1H-carbazol-3-amine]
IC50 (MOLM13 (NPM1 WT)): 10.9 µM
fraction unbound at 6 h [1]: 0.17
Levels in mouse peripheral blood [2]: 0.2 to 0.6 µg/mL
viability at 48 h, 5 µM [3]: 100%
Toxicity in nontumor cells (in words) (IMR90 fibroblasts): not toxic
Caspase-3 cleavage in kidney (in words) ([4]; 50 mg/kg): some caspase-3 cleavage
Toxicity in bone marrow and liver, caspase-3 pathology (in words) ([4]; data not shown): absence of toxicity
